Laboratory results from patent publication US11053204B2, “Pyrimidinyloxy benzene derivatives as herbicides” (FMC Corporation, priority 2015, dated 2021).

How the values were obtained:
Assay type in all cases: in vivo
[1] = system: lambsquarters (Chenopodium album); test: Test C preemergence, plant response rating; settings: Preemergence
Summary of the method: (§1)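 Visual injury score, 0 = no effect, 100 = complete control, assigned against untreated controls after 13 to 15 d in the greenhouse. Compounds were applied in a surfactant-containing non-phytotoxic solvent mix, preemergence to seeded loam/sand or silt loam soil, or postemergence to 1- to 4-leaf plants (2 to 18 cm).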

corn (Zea mays) = test: Test C preemergence, plant response rating; settings: Preemergence
Summary of the method: as §1

[2] = system: foxtail, giant (giant foxtail, Setaria faberii); test: Test C preemergence, plant response rating; settings: Preemergence
Summary of the method: as §1

[3] = system: velvetleaf (Abutilon theophrasti); test: Test C preemergence, plant response rating; settings: Preemergence
Summary of the method: as §1

[4] = system: crabgrass, large (large crabgrass, Digitaria sanguinalis); test: Test C preemergence, plant response rating; settings: Preemergence
Summary of the method: as §1

[5] = system: waterhemp (common waterhemp, Amaranthus rudis); test: Test C preemergence, plant response rating; settings: Preemergence
Summary of the method: as §1

[6] = system: wheat (winter wheat, Triticum aestivum); test: Test C preemergence, plant response rating; settings: Preemergence
Summary of the method: as §1

[7] = system: blackgrass (Alopecurus myosuroides); test: Test C preemergence, plant response rating; settings: Preemergence
Summary of the method: as §1

[8] = system: oilseed rape (Brassica napus); test: Test C preemergence, plant response rating; settings: Preemergence
Summary of the method: as §1

[9] = system: ragweed (common ragweed, Ambrosia elatior); test: Test C preemergence, plant response rating; settings: Preemergence
Summary of the method: as §1

soybean (Glycine max) = test: Test C preemergence, plant response rating; settings: Preemergence
Summary of the method: as §1

[10] = system: morningglory (Ipomoea coccinea); test: Test C preemergence, plant response rating; settings: Preemergence
Summary of the method: as §1

[11] = system: ryegrass, Italian (Italian ryegrass, Lolium multiflorum); test: Test C preemergence, plant response rating; settings: Preemergence
Summary of the method: as §1

[12] = system: nutsedge, yellow (yellow nutsedge, Cyperus esculentus); test: Test C preemergence, plant response rating; settings: Preemergence
Summary of the method: as §1

[13] = system: sedge, umbrella (small-flower umbrella sedge, Cyperus difformis); test: Test B flooded paddy test, plant response rating; settings: 250 g ai/ha; Flood; scale of 0 to 100 where 0 is no effect and 100 is complete control; 13 to 15 days
Summary of the method: (§2)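 Test compounds are applied straight into paddy water held 3 cm above the soil surface, with that flood maintained for the whole test. After 13 to 15 days in the greenhouse, each species is scored visually relative to controls.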

rice (Oryza sativa) = test: Test B flooded paddy test, plant response rating; settings: 250 g ai/ha; Flood; scale of 0 to 100 where 0 is no effect and 100 is complete control; 13 to 15 days
Summary of the method: as §2

[14] = system: ducksalad (Heteranthera limosa); test: Test B flooded paddy test, plant response rating; settings: 250 g ai/ha; Flood; scale of 0 to 100 where 0 is no effect and 100 is complete control; 13 to 15 days
Summary of the method: as §2

[15] = system: pigweed (Amaranthus retroflexus); test: Test C preemergence, plant response rating; settings: Preemergence

O=C(CCC(F)(F)F)c1c(Br)cccc1Oc1ncc(Cl)cn1 [Compound 92]
60: Plant response rating, Ragweed ([9]; 125 g ai/ha, scale of 0 to 100) | Plant response rating, Ragweed ([9]; 62 g ai/ha, scale 0 to 100) | Plant response rating, Soybean (soybean (Glycine max); 125 g ai/ha, scale of 0 to 100) | Plant response rating, Morningglory ([10]; 62 g ai/ha, scale 0 to 100)
15: Plant response rating, Corn (corn (Zea mays); 31 g ai/ha, scale 0 to 100)
100: Plant response rating, Lambsquarters ([1]; 125 g ai/ha, scale of 0 to 100) | Plant response rating, Lambsquarters ([1]; 31 g ai/ha, scale 0 to 100) | Plant response rating, Lambsquarters ([1]; 62 g ai/ha, scale 0 to 100) | Plant response rating, Foxtail, Giant ([2]; 125 g ai/ha, scale of 0 to 100) | Plant response rating, Foxtail, Giant ([2]; 31 g ai/ha, scale 0 to 100) | Plant response rating, Foxtail, Giant ([2]; 62 g ai/ha, scale 0 to 100) | Plant response rating, Velvetleaf ([3]; 125 g ai/ha, scale of 0 to 100) | Plant response rating, Velvetleaf ([3]; 62 g ai/ha, scale 0 to 100) | Plant response rating, Crabgrass, Large ([4]; 125 g ai/ha, scale of 0 to 100) | Plant response rating, Crabgrass, Large ([4]; 16 g ai/ha, scale 0 to 100) | Plant response rating, Crabgrass, Large ([4]; 31 g ai/ha, scale 0 to 100) | Plant response rating, Crabgrass, Large ([4]; 62 g ai/ha, scale 0 to 100) | Plant response rating, Waterhemp ([5]; 125 g ai/ha, scale of 0 to 100) | Plant response rating, Waterhemp ([5]; 31 g ai/ha, scale 0 to 100) | Plant response rating, Waterhemp ([5]; 62 g ai/ha, scale 0 to 100) | Plant response rating, Blackgrass ([7]; 125 g ai/ha, scale of 0 to 100) | Plant response rating, Blackgrass ([7]; 62 g ai/ha, scale 0 to 100) | Plant response rating, Oilseed Rape ([8]; 125 g ai/ha, scale of 0 to 100) | Plant response rating, Oilseed Rape ([8]; 31 g ai/ha, scale 0 to 100) | Plant response rating, Oilseed Rape ([8]; 62 g ai/ha, scale 0 to 100) | Plant response rating, Sedge, Umbrella [13] | Plant response rating, Ducksalad [14] | Plant response rating, Pigweed ([15]; 125 g ai/ha, scale of 0 to 100) | Plant response rating, Pigweed ([15]; 31 g ai/ha, scale 0 to 100) | Plant response rating, Pigweed ([15]; 62 g ai/ha, scale 0 to 100)
95: Plant response rating, Ryegrass, Italian ([11]; 125 g ai/ha, scale of 0 to 100)
50: Plant response rating, Nutsedge, Yellow ([12]; 125 g ai/ha, scale of 0 to 100)
40: Plant response rating, Corn (corn (Zea mays); 125 g ai/ha, scale of 0 to 100) | Plant response rating, Soybean (soybean (Glycine max); 31 g ai/ha, scale 0 to 100) | Plant response rating, Morningglory ([10]; 31 g ai/ha, scale 0 to 100)
45: Plant response rating, Blackgrass ([7]; 16 g ai/ha, scale 0 to 100)
75: Plant response rating, Velvetleaf ([3]; 31 g ai/ha, scale 0 to 100)
80: Plant response rating, Blackgrass ([7]; 31 g ai/ha, scale 0 to 100)
35: Plant response rating, Corn (corn (Zea mays); 62 g ai/ha, scale 0 to 100)
20: Plant response rating, Wheat ([6]; 125 g ai/ha, scale of 0 to 100)
70: Plant response rating, Soybean (soybean (Glycine max); 62 g ai/ha, scale 0 to 100) | Plant response rating, Morningglory ([10]; 125 g ai/ha, scale of 0 to 100)
5: Plant response rating, Ryegrass, Italian ([11]; 31 g ai/ha, scale 0 to 100) | Plant response rating, Nutsedge, Yellow ([12]; 31 g ai/ha, scale 0 to 100) | Plant response rating, Nutsedge, Yellow ([12]; 62 g ai/ha, scale 0 to 100)
55: Plant response rating, Ragweed ([9]; 31 g ai/ha, scale 0 to 100) | Plant response rating, Ryegrass, Italian ([11]; 62 g ai/ha, scale 0 to 100)
0: Plant response rating, Corn (corn (Zea mays); 16 g ai/ha, scale 0 to 100) | Plant response rating, Wheat ([6]; 31 g ai/ha, scale 0 to 100) | Plant response rating, Wheat ([6]; 62 g ai/ha, scale 0 to 100) | Plant response rating, Rice (rice (Oryza sativa))
